Laboratory results: article PMC8070164 (Biomolecules, 2021)

Tests used:
[1] = tested on: ASIC3; conditions: ref [16],[17]; cited from earlier work
Text: Indeed, several neuropeptides modulate ASICs by directly binding to these ionotropic receptors. For example, dynorphin opioid neuropeptides bind to the acidic pocket of ASIC1a and shift steady-state desensitization curves to higher proton concentrations. RFamide neuropeptides bind to the central vestibule of ASIC3 [14] and delay its desensitization.

[2] = tested on: FMRFamide-activated Na^+ channel (FaNaC); conditions: cited from earlier work
Method: For example, some DEG/ENaCs from invertebrates are directly gated by neuropeptides. The FMRFamide-activated Na^+ channel (FaNaC) from the snail Helix is activated by the neuropeptide FMRFamide with an EC50 of ~2 μM [9], Hydra Na^+ channels (HyNaCs) are activated by Hydra-RFamides with an EC50 of 0.05–10 μM [10], and the myoinhibitory peptide-gated ion channel (MGIC) from the annelid Platynereis is activated by myoinhibitory peptides with an EC50 of 1–5 μM [11]. Therefore, neuropeptides are attractive candidates also for ASIC agonists. Of note, these peptide-gated ion channels desensitize ...

[3] = pH of bath solution after dissolving nocistatin; type: physicochemical; conditions: standard bath solution, 10 mM HEPES, initial pH 7.4, standard pH meter
Method: (§1) Rat nocistatin ([…]) has been purchased from ProteoGenix (Schiltigheim, France) with a guaranteed purity of >95%. It was delivered as a lyophilized powder. For measurements with oocytes, it was dissolved in standard bath solution (pH 7.4) to obtain a concentration of 1 mM. This solution was further diluted to 0.5 mM; for one half of this solution, the pH was adjusted to pH 7.4, for the other half it was not adjusted. For measurements with CHO cells, the peptide was dissolved in bath solution to obtain a concentration of 0.25 mM; the pH was adjusted to 7.4. The solutions were freshly prepared before use.
We dissolved nocistatin in bath solution containing 10 mM HEPES with a pH of 7.4 (see Methods); this is the same buffer at the same concentration that was previously used in the study reporting activation of ASICs by nocistatin [18]. Nocistatin dissolved readily, but, as expected for a highly acidic peptide with a pI of 3.7, the pH of the solution dropped to pH values between 6.7 and 4.15 when we dissolved nocistatin to obtain a final concentration between 0.25 and 1 mM (Table 1). We titrated nocistatin-containing solutions using NaOH until we reached again neutral pH of 7.4. For comparison, we also tested a solution containing 0.5 mM nocistatin without adjustment of the pH value.

[4] = tested on: ASIC1a; conditions: ref [18], cited from earlier work
Text: Indeed, several neuropeptides modulate ASICs by directly binding to these ionotropic receptors. For example, dynorphin opioid neuropeptides bind to the acidic pocket of ASIC1a and shift steady-state desensitization curves to higher proton concentrations. RFamide neuropeptides bind to the central vestibule of ASIC3 [14] and delay its desensitization. […] Strikingly, it was reported that the apparent nocistatin affi ...

[5] = tested on: ASIC3; conditions: cited from earlier work
Method: (§2) Indeed, several neuropeptides modulate ASICs by directly binding to these ionotropic receptors. For example, dynorphin opioid neuropeptides bind to the acidic pocket of ASIC1a and shift steady-state desensitization curves to higher proton concentrations. RFamide neuropeptides bind to the central vestibule of ASIC3 [14] and delay its desensitization. […] But ASIC2a has a low proton sensitivity with an EC50 of ~4.0 [21, 22]. Because 1 mM noci ...

[6] = tested on: ASIC2a; conditions: ref [18], cited from earlier work
Method: as §2

[7] = tested on: ASIC1b; conditions: cited from earlier work
Method: as §2

[8] = tested on: rat ASIC1a; test: Whole cell patch-clamp in transfected CHO cells (ASIC1a activation); type: cell-based
Method: Chinese hamster ovary (CHO) cells were maintained in Ham’s Nutrient Mixture F12 (Sigma, St. Louis, MI, USA) together with 10% fetal bovine serum (FBS; Sigma, St. Louis, MI, USA) and passaged regularly. Cells were seeded and transfected after 1 day with 1 µg rat ASIC1a cDNA in pCDNA3.1 and 1 µg GFP using X-treme GENE (Sigma, St. Louis, MI, USA). Cells were patched 48 h after transfection.
We performed whole cell patch-clamp measurements on cultured CHO cells, using patch pipettes of 4–6 MΩ resistance filled with (in mM) 10 NaCl, 121 KCl, 2 MgCl2, 5 EGTA, 10 HEPES, pH 7.25. The bath solution contained (in mM) 128 NaCl, 5.4 KCl, 1 MgCl2, 2 CaCl2, 10 HEPES, pH 7.4 with NaOH. Osmolarity was adjusted with glucose to 280 mOsmol/L for the pipette solution and to 290 mOsmol/L for the extracellular solution. Data were acquired using an Axon Digidata 1440A and an Axon Axopatch 200B and recorded and analyzed using the pClamp Software (Axon Instruments, Molecular Devices, Sunnyvale, San Jose, CA, USA).
as §1
(A) current trace of a CHO cell transfected with rASIC1a cDNA stimulated with pH 6.0 (black bar) or with rNS (0.25 mM, pH 7.4, green bar) for 10 s. Conditioning pH 7.4. This trace is representative for 6 similar measurements. (B) as in A, ASIC1a-expressing CHO cell was stimulated repetitively with pH 6.0 for 10 s (black bars). rNS (0.25 mM, pH 7.4, green bar) was applied for 10 s prior to pH 6.0 stimulation. This trace is representative for 3 similar measurements.

[9] = tested on: rat ASIC1a; test: Two electrode voltage-clamp in Xenopus oocytes (ASIC1a activation); type: cell-based
Method: ASIC1a cRNA synthesis and preparation of oocytes was described previously. Briefly, oocytes were removed from anesthetized frogs; frogs were killed after final oocyte collection by decapitation. Animal care and surgery of frogs were conducted under protocols approved by the State Office for Nature, Environment, and Consumer Protection (LANUV) of North Rhine-Westphalia (NRW), Germany, and were performed in accordance with LANUV NRW guidelines. ASIC1a cRNA (0.016 ng) was injected into stage V or VI oocytes. Oocytes were kept in OR-2 medium (in mM, 82 NaCl, 2.5 KCl, 1 Na2HPO4, 4-(2-hydroxyethyl)-1-piperazineethanesulfonic acid (HEPES), 1.0 MgCl2, 1 CaCl2, and 0.5 mg/mL polyvinylpyrrolidone) at 19 °C. Two electrode voltage-clamp measurements were performed as described previously. Whole cell currents were recorded 24–48 h post injection at room temperature (20–25 °C) with a TurboTec 03X amplifier (npi Electronic, Tamm, Germany). Fast solution exchange was performed by a programmable pipetting robot (screening tool; npi Electronic). Data acquisition was controlled using CellWorks 5.1.1 (npi Electronic). Data were filtered at 20 Hz and acquired at 1 kHz. Holding potential was −70 mV. Standard bath solution for two electrode voltage-clamp measurements contained (in mM) 140 NaCl, 1.8 CaCl2, 1 MgCl2, and 10 HEPES.
as §1
Similar to the previous study, we expressed rat ASIC1a in Xenopus laevis oocytes and performed two electrode voltage-clamp to study activation of ASIC1a by nocistatin.
Current trace recorded from a rASIC1a-expressing oocyte stimulated repetitively with pH 6.0 for 20 s (black bars); conditioning pH 7.4 was applied for 60 s. Rat nocistatin (rNS, 0.5 mM) in pH-unadjusted (pH 5.1, red bar) und pH-adjusted (pH 7.4, green bar) conditioning solution was applied for 20 s.

[10] = 1 mM nocistatin vs pH 5.5, ref [18]

endomorphin-1
effect on ASIC3 desensitization [1]: slow desensitization of ASIC3

endomorphin-2
effect on ASIC3 desensitization [1]: slow desensitization of ASIC3

FMRFamide
desensitization time constant ([2]; desensitize only partially and slowly, ref [9],[10],[11]): > 10 s | EC50 ([2]; ref [9]): ~2 µM

MPRVRSVVQARDAEPEADAEPVADEADEVEQKQLQ [nocistatin, endogenous neuropeptide with 35 amino acids; rat nocistatin purchased from ProteoGenix, purity >95%]
measured pH value after dissolving nocistatin ([3]; 0.25 mM nocistatin): 6.7 | measured pH value after dissolving nocistatin ([3]; 0.5 mM nocistatin): 5.1 | measured pH value after dissolving nocistatin ([3]; 1.0 mM nocistatin): 4.15 | direct agonism ([4]; ASIC1a): direct agonist | desensitization kinetics of nocistatin-induced currents ([4]; compared with proton-induced currents): virtually identical to the kinetics of proton-induced currents | EC50 ([4]; read-out: EC50 (affinity of nocistatin for ASIC1a)): ~250 µM | current amplitude, 1 mM nocistatin compared with pH 5.5 [5, 10]: similar | activation by 1 mM nocistatin ([5]; 1 mM, ref [18]): activated | direct agonism ([5]; ref [18]): direct agonist | current amplitude, 1 mM nocistatin compared with acidification from 7.4 to 5.5 ([6]; 1 mM nocistatin vs acidification from 7.4 to 5.5, ASIC2a): eight times larger current amplitudes | activation by 1 mM nocistatin ([6]; 1 mM, ASIC2a): activated | direct agonism ([6]; ASIC2): direct agonist | current amplitude, 1 mM nocistatin compared with pH 5.5 [7, 10]: similar | activation by 1 mM nocistatin ([7]; 1 mM, ref [18]): activated | direct agonism ([7]; ref [18]): direct agonist | ASIC1a current on pH 6.0 application following nocistatin ([8]; 0.25 mM nocistatin pH 7.4 for 10 s, then pH 6.0 for 10 s, representative for 3 measurements): induced canonical ASIC1a currents | current elicited by nocistatin at neutral pH ([8]; 0.25 mM, pH 7.4, 10 s, conditioning pH 7.4, representative for 6 measurements): elicited no current | direct activation of ASIC1a (summary) ([8]; CHO cells, text says up to 500 μM nocistatin): did not directly activate ASIC1a | ASIC1a current on pH 6.0 application immediately after nocistatin at pH 5.1 (desensitization) ([9]; 0.5 mM nocistatin pH 5.1, then pH 6.0, holding potential −70 mV, representative for 5 measurements): did not elicit currents, indicating that ASIC1a was completely desensitized | ASIC current on pH 6.0 application immediately after nocistatin at pH 7.4 (desensitization) ([9]; 0.5 mM nocistatin pH 7.4, then pH 6.0, holding potential −70 mV, representative for 5 measurements): elicited ASIC currents with a full amplitude | ASIC1a current elicited by nocistatin, pH not adjusted ([9]; 0.5 mM, pH 5.1, 20 s, conditioning pH 7.4, holding potential −70 mV, representative for 5 measurements): elicited ASIC1a currents with an amplitude and kinetics similar to the currents elicited by pH 6.0 | ASIC1a current elicited by nocistatin, pH adjusted ([9]; 0.5 mM, pH adjusted to 7.4, 20 s, holding potential −70 mV, representative for 5 measurements): elicited no ASIC1a currents | direct activation of ASIC1a (summary) ([9]; up to 500 μM nocistatin, Xenopus oocytes): did not directly activate ASIC1a
